Assay [1] has as its target Cathepsin D (Cat D) (Homo sapiens (Human), UniProt P07339). The assay is described as follows: In vitro enzymatic Cathepsin D (Cat D) FRET assay. It is filed as biochemical. The note with it: average; read-out: CatD IC50. The essentials: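 CHO-expressed recombinant Cat D cleaves a fluorophore/quencher FRET peptide (20 nM) in 0.05 M citrate pH 3.5, 5 mM CHAPS, 10% DMSO final, over 1 h. Tris addition neutralizes pH to stop the reaction; fluorescence read at excitation 500 nm, emission 580 nm.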

For assay [2], the target named is Beta Secretase enzyme (BACE) (Homo sapiens (Human), UniProt P56817). Nature of the assay: In vitro enzymatic BACE FRET assay. It is filed as biochemical. The note with it: average; read-out: BACE 1 FRET assay IC50. Summed up: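 A quenched fluorophore-peptide spanning the BACE cleavage site served as substrate at 50 nM, with one-hour incubation in pH 4.2 acetate buffer containing 100 uM genapol and 10% DMSO final. Fluorescence was measured after quenching with Tris to neutral pH.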
Sequence of Beta Secretase enzyme (BACE) (P56817 46-501): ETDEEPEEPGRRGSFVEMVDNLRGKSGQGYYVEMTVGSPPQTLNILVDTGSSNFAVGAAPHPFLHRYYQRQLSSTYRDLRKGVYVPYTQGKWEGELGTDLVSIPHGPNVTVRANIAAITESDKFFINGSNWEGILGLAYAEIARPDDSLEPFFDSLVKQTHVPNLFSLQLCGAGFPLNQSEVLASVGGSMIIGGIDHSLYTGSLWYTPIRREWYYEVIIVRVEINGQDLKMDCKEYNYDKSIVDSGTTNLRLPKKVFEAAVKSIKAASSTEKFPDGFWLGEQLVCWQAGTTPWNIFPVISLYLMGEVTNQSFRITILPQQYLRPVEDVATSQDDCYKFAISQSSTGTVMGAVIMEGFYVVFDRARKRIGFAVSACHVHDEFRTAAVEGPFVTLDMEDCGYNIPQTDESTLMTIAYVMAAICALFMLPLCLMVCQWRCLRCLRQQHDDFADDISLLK

The test system of assay [3] is Aβ40 in conditioned medium of cells stably expressing Amyloid Precursor Protein (APP). The assay is described as follows: In vitro BACE cell-based assay (Aβ40 sandwich ELISA). As to conditions: Homo sapiens. Summed up: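 Aβ40 in supernatants was measured by time-resolved fluorescence sandwich ELISA using pAb40 capture and biotinylated 6E10 detection, with antibody incubations at 4 °C. Stable APP cells were exposed to compounds for 24 h in a 10-point series (top dose 100 or 10 µM, 0.1% DMSO). IC50 was fitted from the concentration-response.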
(In general: In an ELISA, binding on a coated surface is turned into a signal by an enzyme label.)

[4] abbreviates: HEK293, HEK cells, average, read-out: HEK cell assay IC50.
Where [5] appears, read: HEK293, read-out: HEK cell assay IC50.

Read-outs that look alike come from different tables or passages of the source.

Broadly, the IC50 is the midpoint of a concentration-inhibition curve.

Sequence of Cathepsin D (Cat D) (P07339 65-412, species assumed): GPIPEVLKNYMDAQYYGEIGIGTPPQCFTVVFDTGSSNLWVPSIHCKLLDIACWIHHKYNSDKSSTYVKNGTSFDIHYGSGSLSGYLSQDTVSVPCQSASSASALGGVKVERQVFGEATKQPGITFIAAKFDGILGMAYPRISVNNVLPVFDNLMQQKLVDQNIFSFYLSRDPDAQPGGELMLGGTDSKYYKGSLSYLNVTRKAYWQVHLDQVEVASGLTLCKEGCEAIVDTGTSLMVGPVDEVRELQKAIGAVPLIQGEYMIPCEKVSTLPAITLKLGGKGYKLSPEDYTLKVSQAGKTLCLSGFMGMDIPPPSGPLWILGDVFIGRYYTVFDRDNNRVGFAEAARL

With `C#CCOc1cnc(C(=O)Nc2cc(Cl)c(F)c([C@]3(C)C[C@@H](C(F)(F)F)OC(N)=N3)c2)cn1` [Example 212, N-(3-((4S,6S)-2-amino-4-methyl-6-(trifluoromethyl)-5,6-dihydro-4H-1,3-oxazin-4-yl)-5-chloro-4-fluorophenyl)-5-(prop-2-yn-1-yloxy)pyrazine-2-carboxamide], the half-maximal inhibitory concentration (IC50) is 554 µM in assay [1], under 0.002 µM in assay [2] and 0.001 µM in assay [3] (setting [4]).
Taken in the same sequence, the figures for `C[C@@]1(c2cc(NC(=O)c3ccc(Br)cn3)cc(Cl)c2F)C[C@@H](C(F)(F)F)OC(N)=N1` [Example 213, N-(3-((4S,6S)-2-amino-4-methyl-6-(trifluoromethyl)-5,6-dihydro-4H-1,3-oxazin-4-yl)-5-chloro-4-fluorophenyl)-5-bromopicolinamide] were 739 µM, 0.01 µM and 0.0319 µM.
For `C[C@@]1(c2cc(NC(=O)c3cnc(OCC(F)(F)F)cn3)cc(Cl)c2F)C[C@@H](C(F)(F)F)OC(N)=N1` [Example 214, N-(3-((4S,6S)-2-amino-4-methyl-6-(trifluoromethyl)-5,6-dihydro-4H-1,3-oxazin-4-yl)-5-chloro-4-fluorophenyl)-5-(2,2,2-trifluoroethoxy)pyrazine-2-carboxamide], the IC50 was over 400 µM in assay [1], 0.008 µM in assay [2] and 0.029 µM in assay [3] (setting [4]).
In the same order, the values of `COc1cnc(C(=O)Nc2cc(C)c(F)c([C@]3(CF)C[C@@H](C(F)(F)F)OC(N)=N3)c2)c(C)n1` [Example 217, N-(3-((4S,6S)-2-amino-4-(fluoromethyl)-6-(trifluoromethyl)-5,6-dihydro-4H-1,3-oxazin-4-yl)-4-fluoro-5-methylphenyl)-5-methoxy-3-methylpyrazine-2-carboxamide] are 634 µM, 0.081 µM and 0.038 µM.
Regarding `C#CCOc1cnc(C(=O)Nc2cc(C)c(F)c([C@]3(CF)C[C@@H](C(F)(F)F)OC(N)=N3)c2)cn1` [Example 218, N-(3-((4S,6S)-2-amino-4-(fluoromethyl)-6-(trifluoromethyl)-5,6-dihydro-4H-1,3-oxazin-4-yl)-4-fluoro-5-methylphenyl)-5-(prop-2-yn-1-yloxy)pyrazine-2-carboxamide], the half-maximal inhibitory concentration (IC50) was 188 µM in assay [1], 0.001 µM in assay [2] and 0.002 µM in assay [3] (setting [4]).
`Cc1cc(C#N)cnc1C(=O)Nc1cc(C)c(F)c([C@]2(CF)C[C@@H](C(F)(F)F)OC(N)=N2)c1` [Example 219, N-(3-((4S,6S)-2-amino-4-(fluoromethyl)-6-(trifluoromethyl)-5,6-dihydro-4H-1,3-oxazin-4-yl)-4-fluoro-5-methylphenyl)-5-cyano-3-methylpicolinamide]: the IC50 is over 400 µM in assay [1], 0.02 µM in assay [2] and 0.011 µM in assay [3] (setting [4]).
As to `Cc1cc(OCC(F)(F)F)cnc1C(=O)Nc1cc(C)c(F)c([C@]2(CF)C[C@@H](C(F)(F)F)OC(N)=N2)c1` [Example 220, N-(3-((4S,6S)-2-amino-4-(fluoromethyl)-6-(trifluoromethyl)-5,6-dihydro-4H-1,3-oxazin-4-yl)-4-fluoro-5-methylphenyl)-3-methyl-5-(2,2,2-trifluoroethoxy)picolinamide], the IC50 in assay [1] was found to be 263 µM; in assay [2], 0.066 µM; in assay [3] (setting [5]), 0.429 µM.
As to `COc1cc(Cl)cnc1C(=O)Nc1cc(C)c(F)c([C@]2(CF)C[C@@H](C(F)(F)F)OC(N)=N2)c1` [Example 222, N-(3-((4S,6S)-2-amino-4-(fluoromethyl)-6-(trifluoromethyl)-5,6-dihydro-4H-1,3-oxazin-4-yl)-4-fluoro-5-methylphenyl)-5-chloro-3-methoxypicolinamide], the 50% inhibitory concentration (IC50) is over 400 µM in assay [1], 0.091 µM in assay [2] and 0.029 µM in assay [3] (setting [4]).
Taken in the same sequence, the figures for `Cc1cc(NC(=O)c2ccc(C#N)cn2)cc([C@]2(CF)C[C@@H](C(F)(F)F)OC(N)=N2)c1F` [Example 225, N-(3-((4S,6S)-2-amino-4-(fluoromethyl)-6-(trifluoromethyl)-5,6-dihydro-4H-1,3-oxazin-4-yl)-4-fluoro-5-methylphenyl)-5-cyanopicolinamide] were over 400 µM, 0.057 µM and 0.024 µM.
In the same order, the values of `COc1cnc(C(=O)Nc2cc(C)c(F)c([C@]3(CF)C[C@@H](C(F)(F)F)OC(N)=N3)c2)c(C)c1` [Example 226, N-(3-((4S,6S)-2-amino-4-(fluoromethyl)-6-(trifluoromethyl)-5,6-dihydro-4H-1,3-oxazin-4-yl)-4-fluoro-5-methylphenyl)-5-methoxy-3-methylpicolinamide] are 780 µM, 0.048 µM and 0.049 µM.
Taken in the same sequence, the figures for `Cc1cc(OC(F)F)cnc1C(=O)Nc1cc(C)c(F)c([C@]2(CF)C[C@@H](C(F)(F)F)OC(N)=N2)c1` [Example 228, N-(3-((4S,6S)-2-amino-4-(fluoromethyl)-6-(trifluoromethyl)-5,6-dihydro-4H-1,3-oxazin-4-yl)-4-fluoro-5-methylphenyl)-5-(difluoromethoxy)-3-methylpicolinamide] were 775 µM, 0.032 µM and 0.028 µM.
Take `Cc1cc(Nc2ncnc3cc(Cl)cnc23)cc([C@]2(CF)C[C@@H](C(F)(F)F)OC(N)=N2)c1F` [Example 230, (4S,6S)-4-(5-((7-chloropyrido[3,2-d]pyrimidin-4-yl)amino)-2-fluoro-3-methylphenyl)-4-(fluoromethyl)-6-(trifluoromethyl)-5,6-dihydro-4H-1,3-oxazin-2-amine]: the results for the IC50 in assay [1], in assay [2] and in assay [3] (setting [4]) were over 400 µM, 0.049 µM and 0.057 µM, respectively.
In the same order, the values of `COc1cccnc1Nc1cc(F)c(F)c([C@]2(C)C[C@@H](C(F)(F)F)OC(N)=N2)c1` [Example 231, (4S,6S)-4-(2,3-difluoro-5-((3-methoxypyridin-2-yl)amino)phenyl)-4-methyl-6-(trifluoromethyl)-5,6-dihydro-4H-1,3-oxazin-2-amine] are 282 µM, 0.177 µM and 0.162 µM.
With `Cc1cc(C#N)cnc1C(=O)Nc1cc(F)c(F)c([C@]2(CF)C[C@@H](C(F)(F)F)OC(N)=N2)c1` [Example 232, N-(3-((4S,6S)-2-amino-4-(fluoromethyl)-6-(trifluoromethyl)-5,6-dihydro-4H-1,3-oxazin-4-yl)-4,5-difluorophenyl)-5-cyano-3-methylpicolinamide], the values for the IC50 in assay [1], in assay [2] and in assay [3] (setting [4]) were 568 µM, 0.016 µM and 0.055 µM, respectively.
For `N#Cc1cnc(C(=O)Nc2cc(F)c(F)c([C@]3(CF)C[C@@H](C(F)(F)F)OC(N)=N3)c2)c(F)c1` [Example 234, N-(3-((4S,6S)-2-amino-4-(fluoromethyl)-6-(trifluoromethyl)-5,6-dihydro-4H-1,3-oxazin-4-yl)-4,5-difluorophenyl)-5-cyano-3-fluoropicolinamide], the IC50 in assay [1] is over 400 µM; in assay [2], 0.038 µM; in assay [3] (setting [5]), 0.057 µM.
For `NC1=N[C@](CF)(c2cc(Oc3cc(-c4ccccc4)cc(Cl)n3)ccc2F)C[C@@H](C(F)(F)F)O1` [Example 235, (4S,6S)-4-(5-((6-chloro-4-phenylpyridin-2-yl)oxy)-2-fluorophenyl)-4-(fluoromethyl)-6-(trifluoromethyl)-5,6-dihydro-4H-1,3-oxazin-2-amine], the IC50 in assay [1] is over 133 µM; in assay [2], over 40 µM; in assay [3] (setting [4]), 8.17 µM.
Consider `C[C@@]1(c2cc(NC(=O)c3ccc(C#N)cn3)cc(F)c2Cl)C[C@@H](C(F)(F)F)OC(N)=N1` [Example 238, N-(3-((4S,6S)-2-amino-4-methyl-6-(trifluoromethyl)-5,6-dihydro-4H-1,3-oxazin-4-yl)-4-chloro-5-fluorophenyl)-5-cyanopicolinamide], for which the IC50 in assay [1] is 131 µM; in assay [2], 0.008 µM; in assay [3] (setting [4]) it was 0.006 µM.
Taken in the same sequence, the figures for `COc1cnc(C(=O)Nc2cc(F)c(F)c([C@]3(C)C[C@@H](C(F)(F)F)OC(N)=N3)c2)c(F)c1` [Example 239, N-(3-((4S,6S)-2-amino-4-methyl-6-(trifluoromethyl)-5,6-dihydro-4H-1,3-oxazin-4-yl)-4,5-difluorophenyl)-3-fluoro-5-methoxypicolinamide] were 1180 µM, 0.033 µM and 0.012 µM.
In the case of `C[C@@]1(c2cc(NC(=O)c3ncc(Br)cc3Cl)cc(F)c2F)C[C@@H](C(F)(F)F)OC(N)=N1` [Example 240, N-(3-((4S,6S)-2-amino-4-methyl-6-(trifluoromethyl)-5,6-dihydro-4H-1,3-oxazin-4-yl)-4,5-difluorophenyl)-5-bromo-3-chloropicolinamide], the figures for the half-maximal inhibitory concentration (IC50) in assay [1], in assay [2] and in assay [3] (setting [5]) were 928 µM, 0.02 µM and 0.022 µM, respectively.

These data come from US9296734B2 (AMGEN INC., priority 2013, dated 2016).
